Source: patent US20130131321A1, “LIGANDS FOR ANTIBODY AND Fc-FUSION PROTEIN PURIFICATION BY AFFINITY CHROMATOGRAPHY” (GRAFFINITY PHARMACEUTICALS GMBH, priority 2010, published 2013)
Like-named read-outs stand apart in the source and are kept apart here.

Experiments:
Bevacizumab [1] = molecular target: T1, Bevacizumab (Homo sapiens, UniProt P01857); experiment: Microtiter plate chromatography of resins, Bevacizumab whole IgG (bound, yield, selectivity); format: binding, humanized; details: for Bevacizumab IgG Bound (%): fraction of whole IgG Bevacizumab bound to resin; for Bevacizumab IgG Yield (%): mass of whole IgG Bevacizumab eluted / mass injected
T1 construct: fused on or other part: humanised anti-VEGF-A VH domain N-terminal of the gamma-1 constant region (engineered, no UniProt entry)
Method: (§1) Resins were assessed in packed mode by microtiter plate chromatography. For each column, approximately 30 μl of resin were transferred to a 384-well filter plate and sealed with appropriate top frits.
(§2) Columns were equilibrated with 6.7 column volumes (cv) of phosphate buffered saline (0.15 M NaCl, 20 mM sodium phosphate, pH 7.3; PBS) prior to injection. Either 3.3 cv of whole IgGs dissolved at 0.75 mg ml^−1, Fab or Fc fragments dissolved at 0.25 mg ml^−1 (all three in PBS) or host cell proteins (HCP) were injected onto columns. Antibody fragments of Bevacizumab (Fab and Fc) were prepared by cleavage of whole IgG with papain protease (3) according to the protocol of the manufacturer. […] Volumes transferred were spun through columns at 50 g for 1-2 min. During injection of samples, acceleration was reduced to 10 g and centrifugation time increased to 5-10 min. Effluent fractions were collected in 384-well plates and concentrations of protein analyzed by Bradford assay. Protein masses mi, mft and me (see below) were calculated as the product of fraction volume and measured protein concentration.
(§3) The fraction of ‘bound’ protein was calculated as the difference between the total mass of protein injected mi and the mass of protein detected in the flowthrough mft, divided by the total mass of protein injected.
(§4) The ‘yield’ of protein was calculated as the mass of protein eluted me, divided by the mass of protein injected mi.
(§5) The ‘selectivity’ of resins was calculated as the fraction of bound antibody BAb, divided by the fraction of bound host cell proteins BHCP.
(§6) the fraction of ‘bound’ protein and the ‘yield’ of protein were calculated for each resin based on data for whole IgG-antibodies. In the case of Bevacizumab fragments and host cell proteins, only the fraction of ‘bound’ protein is given. Selectivity of resins was calculated from data for Bevacizumab Whole IgG and host cell proteins. Due to limited experimental precision, selectivity was truncated beyond values of 10.

Bevacizumab [2] = experiment: as above; format: binding, humanized
Method: as §1, §2, §3, §4, §5, §6

Tocilizumab = experiment: Microtiter plate chromatography of resins, Tocilizumab (bound, yield); format: binding, humanized
Method: as §1, §2, §3, §4, §6

Palivizumab = experiment: Microtiter plate chromatography of resins, Palivizumab (bound, yield); format: binding, humanized
Method: as §1, §2, §3, §4, §6

[3] = system: human poly-IgG (h-poly-IgG); experiment: Microtiter plate chromatography of resins, human poly-IgG (bound, yield); format: binding
Method: as §1, §2, §3, §4, §6

host cell proteins (HCP) = experiment: Microtiter plate chromatography of resins, host cell proteins (bound); format: binding, CHO; details: host cell proteins
Method: Flowthrough from protein A chromatography (referred to as host cell proteins) was derived from the supernatant of antibody-producing CHO cell culture in serum-free medium.
as §1, §2, §3, §6

[4] = fraction of bound Bevacizumab whole IgG / fraction of bound HCP, truncated beyond values of 10

SMILES	Bevacizumab IgG Bound (%) (Bevacizumab [1])	Bevacizumab IgG Yield (%) (Bevacizumab [1])	Selectivity (Bevacizumab [2])	Tocilizumab Bound (%) (Tocilizumab)	Tocilizumab Yield (%) (Tocilizumab)	Palivizumab Bound (%) (Palivizumab)	Palivizumab Yield (%) (Palivizumab)	h-poly-IgG Bound (%) [3] [%]	h-poly-IgG Yield (%) [3] [%]	HCP Bound (%) (host cell proteins (HCP))	Selectivity (Bevacizumab [2]; [4])
COc1ccc(NC(=O)c2nn(CC(O)CO)c3ccccc23)cc1C(=O)NCCCN (racemic) [Ligand L40, (RS)-5-[1-(2,3-Dihydroxy-1-propyl)indazol-3-ylcarboxamido]-2-methoxybenzoic acid (3-amino-1-propyl)amide]	100	100	4.5	90	90	62	62	98	97	22	–
COc1ccc(NC(=O)c2cc(-c3cc(C)sc3C)n(C)n2)cc1C(=O)NCCCN [Ligand L3, 5-[5-(2,5-Dimethyl-3-thienyl)-1-methylpyrazol-3-yl]carboxamido-2-methoxybenzoic acid N-(3-aminopropyl)amide]	100	89	1.4	97	95	100	93	102	72	62	–
COc1ccc(NC(=O)c2cc(-c3cccc(Cl)c3)n(C)n2)cc1C(=O)NCCCN [Ligand L7, 5-[5-(3-Chlorophenyl)-1-methylpyrazol-3-yl]carboxamido-2-methoxybenzoic acid N-(3-aminopropyl)amide]	100	110	1.4	92	109	100	99	100	91	70	–
Cc1c(NC(=O)c2cc(-c3cccs3)n(C)n2)cccc1C(=O)NCCCN [Ligand L9, 2-Methyl-3-[1-methyl-5-(2-thienyl)pyrazol-3-yl]carboxamidobenzoic acid N-(3-aminopropyl)amide]	100	91	1.7	71	64	41	33	65	53	58	–
Cc1ccc(C(=O)NCCCN)cc1NC(=O)c1cc(-c2cccs2)n(C)n1 [Ligand L10, 4-Methyl-3-[1-methyl-5-(2-thienyl)pyrazol-3-yl]carboxamidobenzoic acid N-(3-aminopropyl)amide]	100	91	1.5	86	73	59	62	72	60	68	–
COc1ccc(NC(=O)c2cncc(-c3ccccc3)c2)cc1C(=O)NCCCN [Ligand L11, 2-Methoxy-5-(3-phenylpyridin-5-yl)carboxamidobenzoic acid N-(3-aminopropyl)amide]	95	94	1.7	100	89	78	75	89	79	56	–
COc1ccc(NC(=O)c2cncc(-c3ccc(C(F)(F)F)cc3)c2)cc1C(=O)NCCCN [Ligand L12, 2-Methoxy-5-{3-[4-(trifluoromethyl)phenyl]pyridin-5-yl}carboxamidobenzoic acid N-(3-aminopropyl)amide]	100	50	1.6	61	49	52	41	68	37	63	–
COc1ccc(NC(=O)c2cncc(-c3cc4ccccc4s3)c2)cc1C(=O)NCCCN [Ligand L14, 5-[3-(2-Benzothienyl)pyridin-5-yl]carboxamido-2-methoxybenzoic acid N-(3-aminopropyl)amide]	99	89	1.3	82	74	66	61	73	62	74	–
COc1ccc(NC(=O)c2cc(-c3ccccc3)n(C)n2)cc1C(=O)NCCCN [Ligand L15, 2-Methoxy-5-(1-methyl-5-phenylpyrazol-3-yl)carboxamidobenzoic acid N-(3-aminopropyl)amide]	99	94	1.6	100	98	100	90	98	83	64	–
COc1ccc(NC(=O)c2cc(-c3cccn3C)n(C)n2)cc1C(=O)NCCCN [Ligand L16, 2-Methoxy-5-[5-(1-methyl-2-pyrrolyl)-1-methylpyrazol-3-yl]carboxamidobenzoic acid N-(3-aminopropyl)amide]	100	93	2.0	100	96	100	90	96	83	51	–
COc1ccc(NC(=O)c2cn3ccsc3n2)cc1C(=O)NCCCC[C@H](NC(=O)c1cc(NC(=O)c2cn3ccsc3n2)ccc1OC)C(=O)NCCCN [Ligand L49, (S)-2,6-Bis[5-(Imidazo[2,1-b]thiazol-6-ylcarboxamido)-2-methoxyphenylcarboxamido]hexanoic acid (3-amino-1-propyl)amide]	100	88	–	99	97	–	–	88	88	17	6.1
COc1ccc(NC(=O)c2cn3ccsc3n2)cc1C(=O)NCCOCCOCC(=O)NCCCC[C@H](NC(=O)COCCOCCNC(=O)c1cc(NC(=O)c2cn3ccsc3n2)ccc1OC)C(=O)NCCCN [Ligand L50, (S)-2,6-Bis{8-[5-(Imidazo[2,1-b]thiazol-6-ylcarboxamido)-2-methoxyphenylcarboxamido]-3,6-dioxaoctanoylamido}hexanoic acid (3-amino-1-propyl)amide]	100	92	–	100	100	–	–	91	91	15	6.9
COc1ccc(NC(=O)c2nn(C)c3ccccc23)cc1C(=O)NCCOCCOCC(=O)NCCCN [Ligand L60, 8-[2-Methoxy-5-(1-methylindazol-3-ylcarboxamido)phenylcarboxamido]-3,6-dioxaoctanoic acid (3-amino-1-propyl)amide]	100	82	3.3	93	93	–	–	95	94	30	–
COc1ccc(NC(=O)c2cn3ccsc3n2)cc1C(=O)NCCCNC(=O)CC[C@H](N)C(=O)NCCCNC(=O)c1cc(NC(=O)c2cn3ccsc3n2)ccc1OC [Ligand L64, (S)-1-Aminopropane-1,3-dicarboxylic acid bis{3-[5-(imidazo[2,1-b]thiazol-6-ylcarboxamido)-2-methoxyphenylcarboxamido]propyl}amide]	100	93	–	99	99	–	–	100	97	36	2.8
